{"source": "patent EP2583662A1", "about": "“Composition comprising a meroterpen to manage oily skin with tendency to develop acne” (priority 2011, dated 2013)", "key": {"[1]": {"tested_on": "Propionibacterium acnes CIP A179", "test": "Minimal inhibitory concentration (CMI) in solid medium against Propionibacterium acnes", "type": "cell-based", "conditions": "single active; Wilkins-Chalgren agar, 18h at 37°C, anaerobic", "protocol": "La détermination de la CMI des actifs à évaluer vis-à-vis de Propionibacterium acnes consiste, dans un premier temps, à préparer une gamme comportant neuf dilutions des actifs à tester. Chaque dilution est ensuite déposée en boîte de Pétri puis recouverte de gélose Wilkins-Chalgren. Après homogénéisation puis solidification, chacune des boîtes est inoculée avec une suspension calibrée (10^7 UFC/mL) de P acnes (dépôt par strie), puis les boîtes sont incubées 18h à 37°C en anaérobiose. La souche utilisée est le Propionibacterium acnes CIP A179 (origine = glande sébacée (1946), source CRBIP, Institut Pasteur, Paris).\nLa préparation des géloses s'effectue à J1 en ajoutant 2 mL d'eau osmosée stérile dans une boîte de Pétri (témoin négatif) ou 2 ml de chaque dilution des gammes d'actifs 10 fois concentré et 18 mL de milieu gélosé. Après solidification à température ambiante, les boites sont séchées 30 min à 37°C puis ensemencées avec la suspension bactérienne calibrée (10^7 UFC/mL) à l'aide d'une ose calibrée de 10 µL permettant de réaliser un dépôt correspondant à environ 10^4 UFC).\nLa lecture des boites est effectuée après 18 heures de culture à 37°C permettant de déterminer la CMI correspondant à la plus faible concentration d'actif(s) qui inhibe toute culture visible de P acnes. La présence de 1 à 3 colonies n'est pas prise en considération.\nLes produits évalués sont le S (Sytenol®A, Sytheon), Z (Zinc gluconate, Azelis), seuls et les associations S + M (mannitol, IMCD/SPCI) + G (extrait glycolique de Ginkgo biloba, Greentech) et S + M + G + Z.\nLe Sytenol®A qui présente un caractère lipophile est dilué dans le DMSO (solution mère à 10%) avant d'être redilué dans l'eau osmosée. Le zinc, le mannitol et l'extrait de Ginkgo sont directement dilués dans l'eau osmosée.\nLes essais ont également compris des contrôles en présence du solvant DMSO ayant servi à la solubilisation de S dans l'eau."}, "[2]": {"test": "Protection of squalene against H2O2-induced oxidation (GC-MS assay of remaining squalene)", "conditions": "for Indice de protection (%): squalene + H2O2 for 1 hour", "experimental": "Le but de l'étude est d'évaluer les effets d'un méroterpène, en l'occurrence le Sytenol®A, sur l'oxydation du squalène induite par du peroxyde d'hydrogène (H2O2).\nLe squalène (Sigma, St Quentin Fallavier) est mis en contact avec une quantité définie de peroxyde d'hydrogène pendant 1 heure pour induire son oxydation, en présence ou non du Sytenol®A à 0.1%, 0.25% ou 0.5% (P/V). Un contrôle est réalisé avec un anti-oxydant lipophile de référence, la vitamine E, testée à 0,16% (3,8 mM), correspondant à une concentration équimolaire de Sytenol®A à 0,1%.\nA l'issue de l'oxydation, une étape d'extraction est réalisée, puis les échantillons sont analysés par chromatographie en phase gazeuse couplée à une analyse par spectrométrie de masse (GC-MS). Le squalène est dosé grâce à une gamme étalon (10 µg/ml à 2500 µg/ml). La quantité de squalène oxydée est déduite des dosages du squalène. Plus les quantités de squalène dosées sont importantes, moins il a été oxydé et inversement."}}}
{"molecule": "O=C(OOC(=O)c1ccccc1)c1ccccc1", "note": "[Peroxyde de Benzoyle, peroxyde de benzoyle]", "values": [{"measurement": "CMI", "setting": "[1]", "result": 0.008, "unit": "%"}]}
{"molecule": "C=C[C@@](C)(/C=C/c1ccc(O)cc1)CCC=C(C)C", "note": "[Sytenol®A, bakuchiol]", "values": [{"measurement": "fois plus efficace que la vitamine E en termes de protection de l'oxydation du squalène", "setting": "[2]; equimolar concentration of 3,8 mM", "result": 2, "unit": "fois"}, {"measurement": "Indice de protection (%)", "setting": "[2]; tested at 0.1% (3.9mM)", "result": 30.02, "unit": "%"}, {"measurement": "Indice de protection (%)", "setting": "[2]; tested at 0.25% (9.75 mM)", "result": 37.12, "unit": "%"}]}
{"molecule": "Zinc gluconate", "values": [{"measurement": "CMI", "setting": "[1]", "result": 0.12, "unit": "%"}]}
{"molecule": "vitamine E", "values": [{"measurement": "Indice de protection (%)", "setting": "[2]; tested at 0.16% (3.8mM)", "result": 15.17, "unit": "%"}]}
